Measured values: patent publication US9051310B2, “Nicotinamide derivative or salt thereof” (FUJIFILM Corporation, priority 2011, dated 2015)
pIC50: −log10 of the molar value.

Legend:
[1] = molecular target: T1, glutathione S-transferase (GST)-linked full-length human Syk protein (Homo sapiens, UniProt P43405); test: Syk enzyme assay; type: biochemical; details: 0.83 nM Syk, time-resolved fluorescence; read-out: IC50 of Syk-inhibitory activity
T1 construct: glutathione S-transferase (GST)-linked full-length human Syk protein; purchased Carna Biosciences; host or cells: Baculovirus expression system
Summary of the method: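 Phosphotyrosine on a biotin-peptide substrate (0.5 μM) was read by time-resolved fluorescence at 615 and 665 nm with Eu-anti-pTyr antibody and APC-streptavidin after 1 h EDTA stop.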

[2] = test system: THP-1 cells (TNFα secretion on human IgG-coated plate); test: TNFα generation assay; type: cell-based; details: IFN-γ differentiated THP-1 cells, 7 hours, AlphaLISA, read-out: IC50 of TNFα generation inhibitory activity
Experimental: THP-1 cells (2×10^5 cells/ml), which were human monocytoid cells, were cultured in the presence of 10 ng/ml IFN-γ (Roche) for 2 days, and they were induced to differentiate into macrophage-like cells. The differentiation-induced THP-1 cells were recovered, and the cells (1×10^6 cell/ml) were then allowed to react with a predetermined concentration of test compound at room temperature for 30 minutes. On the other hand, 100 μl of human IgG (10 μg/ml, SIGMA-ALDRICH) diluted with PBS was added to a 96-well plate, and it was then incubated at room temperature overnight. Thereafter, the resultant was washed with PBS twice to produce a human IgG-coated plate. A cell fluid that contained a compound was plated on the obtained human IgG-coated plate (5×10^4 cells/well), and it was then cultured for 7 hours. Thereafter, the cultured solution was recovered, and the amount of TNFα secreted into the culture solution was then measured by the AlphaLISA method (PerkinElmer).

pIC50 [1] | pIC50 [2] | SMILES
> 8.00 | 6.70 to 6.89 | Cc1ncc(Nc2nc(N[C@H](c3ccc(F)cc3)[C@H](C)N)c(F)cc2C(N)=O)cc1-n1nccn1 [Example 2-32, 6-(((1R,2S)-2-amino-1-(4-fluorophenyl)propyl)amino)-5-fluoro-2-((6-methyl-5-(2H-1,2,3-triazol-2-yl)pyridin-3-yl)ammo)nicotinamide]
7.30 to 8.00 | 6.70 to 6.89 | CC[C@H](N)[C@@H](C)Nc1nc(Nc2cnc(C)c(-n3nccn3)c2)c(C(N)=O)cc1F [Example 2-33, 6-(((2R,3S)-3-aminopentan-2-yl)amino)-5-fluoro-2-((6-methyl-5-(2H-1,2,3-triazol-2-yl)pyridin-3-yl)amino)nicotinamide]
> 8.00 | 6.89 to 7.19 | CC(C)C[C@@H](Nc1nc(Nc2ccc3cnn(C)c3c2)c(C(N)=O)cc1F)[C@H](C)N [Example 2-37, 6-(((2S,3R)-2-amino-5-methylhexan-3-yl)amino)-5-fluoro-2-((1-methyl-1H-indazol-6-yl)amino)nicotinamide]
> 8.00 | 6.89 to 7.19 | CCCC[C@@H](Nc1nc(Nc2ccc3cnn(C)c3c2)c(C(N)=O)cc1F)[C@H](C)N [Example 2-38, 6-(((2S,3R)-2-aminoheptan-3-yl)amino)-5-fluoro-2-((1-methyl-1H-indazol-6-yl)amino)nicotinamide]
> 8.00 | > 7.19 | CC[C@H](N)[C@@H](C)Nc1nc(Nc2ccc3cnn(C)c3c2)c(C(N)=O)cc1F [Example 2-39, 6-(((2R,3S)-3-aminopentan-2-yl)amino)-5-fluoro-2-((1-methyl-1H-indazol-6-yl)amino)nicotinamide]
> 8.00 | 6.89 to 7.19 | CC[C@H](N)[C@@H](C)Nc1nc(Nc2cncc(C3CC3)c2)c(C(N)=O)cc1F [Example 2-41, 6-(((2R,3S)-3-aminopentan-2-yl)amino)-2-((5-cyclopropylpyridin-3-yl)amino)-5-fluoronicotinamide]
7.30 to 8.00 | 6.89 to 7.19 | CC[C@H](N)[C@@H](C)Nc1nc(Nc2ccnc(OCCOC)c2)c(C(N)=O)cc1F [Example 2-42, 6(((2R,3S)-3-aminopentan-2-yl)amino)-5-2-((2-(2-methoxyethoxy)pyridin-4-yl)amino)nicotinamide]
> 8.00 | 6.70 to 6.89 | CC[C@H](N)[C@@H](CC)Nc1nc(Nc2ccnc(OCCOC)c2)c(C(N)=O)cc1F [Example 2-43, 6-(((3R,4S)-4-aminohexan-3-yl)amino)-5-fluoro-2-((2-(2-methoxyethoxy)pyridin-4-yl)amino)nicotinamide]
> 8.00 | 6.70 to 6.89 | Cc1cc(C)cc(Nc2nc(N[C@H](C3CC3)[C@H](C)N)c(F)cc2C(N)=O)c1 [Example 2-45, 6-(((1R,2S)-2-amino-1-cyclopropylpropyl)amino)-2-((3,5-dimethylphenyl)amino)-5-fluoronicotinamide]
> 8.00 | 6.89 to 7.19 | COc1cccc(Nc2nc(N[C@H](C3CC3)[C@H](C)N)c(F)cc2C(N)=O)c1 [Example 2-46, 6-(((1R,2S)-2-amino-1-cyclopropylpropyl)amino)-5-fluoro-2-((3-methoxyphenyl)amino)nicotinamide]
> 8.00 | 6.89 to 7.19 | COc1cc(Nc2nc(N[C@H](C3CC3)[C@H](C)N)c(F)cc2C(N)=O)cc(OC)c1 [Example 2-47, 6-(((1R,2S)-2-amino-1-cyclopropylpropyl)amino)-2-((3,5-dimethoxyphenyl)amino)-5-fluoronicotinamide]
> 8.00 | 6.70 to 6.89 | COc1cc(Nc2nc(N[C@H](C3CC3)[C@H](C)N)c(F)cc2C(N)=O)ccc1C [Example 2-49, 6-(((1R,2S)-2-amino-1-cyclopropylpropyl)amino)-5-fluoro-2-((3-methoxy-4-methylphenyl)amino)nicotinamide]
> 8.00 | 6.70 to 6.89 | COc1nn(CC(F)F)c2ccc(Nc3nc(N[C@H](CC(C)C)[C@H](C)N)c(F)cc3C(N)=O)cc12 [Example 2-54, 6-(((2S,3R)-2-amino-5-methylhexan-3-yl)amino)-2-((1-(2,2-difluoroethyl)-3-methoxy-1H-indazol-5-yl)amino)-5-fluoronicotinamide]
> 8.00 | 6.89 to 7.19 | CC[C@@H](Nc1nc(Nc2ccc3onc(OC)c3c2)c(C(N)=O)cc1F)[C@H](C)N [Example 2-57, 6-(((2S,3R)-2-aminopentan-3-yl)amino)-5-fluoro-2-((3-methoxybenzo[d]isoxazol-5-yl)amino)nicotinamide]
7.30 to 8.00 | 6.70 to 6.89 | C[C@H](N)[C@H](Nc1nc(Nc2ccc(F)cc2)c(C(N)=O)cc1F)C1CC1 [Example 2-58, 6-(((1R,2S)-2-amino-1-cyclopropylpropyl)amino)-5-fluoro-2-((4-fluorophenyl)amino)nicotinamide]
7.30 to 8.00 | 6.70 to 6.89 | NC(=O)c1cc(F)c(N[C@@H]2CCCC[C@@H]2N)nc1Nc1cnc(-n2nccn2)c(F)c1 [Example 2-67, 6-(((1R,2S)-2-aminocyolohexyl)amino)-5-fluoro-2-((5-fluoro-6-(2H-1,2,3-triazol-2-yl)pyridin-3-yl)amino)nicotinamide]
7.30 to 8.00 | 6.70 to 6.89 | CCCC[C@@H](Nc1nc(Nc2cncc(-n3cccn3)c2)c(C(N)=O)cc1F)[C@H](C)N [Example 2-69, 2-((5-(1H-pyrazol-1-yl)pyridin-3-yl)amino)-6-(((2S,3R)-2-aminoheptan-3-yl)amino)-5-fluoronicotinamide]
> 8.00 | > 7.19 | C[C@H](N)[C@H](Nc1nc(Nc2ccc3c(cnn3CC(F)F)c2)c(C(N)=O)cc1F)C1CC1 [Example 2-71]
> 8.00 | 6.70 to 6.89 | C[C@H](N)[C@H](Nc1nc(Nc2ccc3c(c2)c(N(C)C)nn3C)c(C(N)=O)cc1F)C1CC1 [Example 2-72, 6-(((1R,2S)-2-amino-1-cyclopropylpropyl)amino)-2-((3-(dimethylamino)-1-methyl-1H-indazol-5-yl)amino)-5-fluoronicotinamide]
> 8.00 | 6.70 to 6.89 | CCn1nc(OC)c2cc(Nc3nc(N[C@H](C4CC4)[C@H](C)N)c(F)cc3C(N)=O)ccc21 [Example 2-73, 6-(((1R,2S)-2-amino-1-cyclopropylpropyl)amino)-2-((1-ethyl-3-methoxy-1H-indazol-5-yl)amino)-5-fluoronicotinamide]
> 8.00 | 6.70 to 6.89 | C[C@H](N)[C@H](Nc1nc(Nc2cccc3c2cnn3CC(F)F)c(C(N)=O)cc1F)C1CC1 [Example 2-75, 6-(((1R,2S)-2-amino-1-cyclopropylpropyl)amino)-2-((1-(2,2-difluoroethyl)-1H-indazol-4-yl)amino)-5-fluoronicotinamide]
> 8.00 | 6.89 to 7.19 | COc1nn(C)c2ccc(Nc3nc(N[C@@H](CN)CC(C)C)c(F)cc3C(N)=O)cc12 [Example 2-78, (R)-6-((1-amino-4-methylpentan-2-yl)amino)-5-fluoro-2-((3-methoxy-1-methyl-1H-indazol-5-yl)amino)nicotinamide]
> 8.00 | 6.70 to 6.89 | COc1nn(C)c2ccc(Nc3nc(N[C@@H](CN)CC4CC4)c(F)cc3C(N)=O)cc12 [Example 2-79, (R)-6-((1-amino-3-cyclopropylpropan-2-yl)amino)-5-fluoro-2-((3-methoxy-1-methyl-1H-indazol-5-yl)amino)nicotinamide]
